How the values were obtained:
Assay in all cases: Test B pre-/postemergence plant response
Assay type in all cases: in vivo
[1] = tested on: yellow nutsedge (Cyperus esculentus)
How it was run: (§1)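 Visual injury, 0–100 scale (100 = complete control), rated against controls after 13 to 15 days in greenhouse. Pre-emergence: seeds in loam/sand soil, treated at planting. Post-emergence: 1- to 4-leaf plants (2 to 18 cm) in peat/vermiculite medium. Compounds formulated in non-phytotoxic solvent with surfactant.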

[2] = tested on: wheat (Triticum aestivum)
How it was run: as §1

[3] = tested on: woolly cupgrass (Eriochloa villosa)
How it was run: as §1

[4] = tested on: ragweed (common ragweed, Ambrosia elatior)
How it was run: as §1

[5] = tested on: goosegrass (Eleusine indica)
How it was run: as §1

[6] = tested on: bermudagrass (Cynodon dactylon)
How it was run: as §1

[7] = tested on: velvetleaf (Abutilon theophrasti)
How it was run: as §1

[8] = tested on: large crabgrass (Digitaria sanguinalis)
How it was run: as §1

kochia (Kochia scoparia) = tested on: kochia (Kochia scoparia)
How it was run: as §1

[9] = tested on: johnsongrass (Sorghum halepense)
How it was run: as §1

[10] = tested on: green foxtail (Setaria viridis)
How it was run: as §1

soybean (Glycine max) = tested on: soybean (Glycine max)
How it was run: as §1

[11] = tested on: lambsquarters (Chenopodium album)
How it was run: as §1

[12] = 31 g ai/ha, postemergence, scale 0 to 100, 0 is no effect, 100 is complete control
[13] = 62 g ai/ha, postemergence, 0 is no effect, 100 is complete control, 13 to 15 days
[14] = Postemergence, 125 g ai/ha, visual rating after 13 to 15 days, scale 0 (no effect) to 100 (complete control)
[15] = Postemergence, 250 g ai/ha, scale 0 to 100 (0 no effect, 100 complete control)

With `Cc1ccccc1-c1ncc(C(=O)C2=C(O)CCCC2=O)c(=O)n1-c1ccccc1` [Compound 82] the “Plant response rating, Nutsedge, Yellow” value [1, 12] was 10, the “Nutsedge, Yellow plant response rating (0 to 100 scale)” value [1, 13] was 15 and the “Plant response rating, Nutsedge, Yellow” value [1, 14] was 45. The “Plant response rating, Nutsedge, Yellow” value [1, 15] was 55, the “Plant response rating, Wheat” value [2, 12] was 0 and the “Wheat plant response rating (0 to 100 scale)” value [2, 13] was 0. The “Plant response rating, Wheat” value [2, 14] was 0, the “Plant response rating, Wheat” value [2, 15] was 5 and the “Plant response rating, Cupgrass, Woolly” value [3, 12] was 55. For the same molecule, the “Cupgrass, Woolly plant response rating (0 to 100 scale)” value [3, 13] was 55, the “Plant response rating, Cupgrass, Woolly” value [3, 14] was 65 and the “Plant response rating, Cupgrass, Woolly” value [3, 15] was 75. For the same molecule, the “Plant response rating, Ragweed” value [4, 12] was 75, the “Ragweed plant response rating (0 to 100 scale)” value [4, 13] was 80 and the “Plant response rating, Ragweed” value [4, 14] was 95. For the same molecule, the “Plant response rating, Ragweed” value [4, 15] was 95, the “Plant response rating, Goosegrass” value [5, 12] was 75 and the “Goosegrass plant response rating (0 to 100 scale)” value [5, 13] was 75. The “Plant response rating, Goosegrass” value [5, 14] was 80, the “Plant response rating, Goosegrass” value [5, 15] was 85 and the “Plant response rating, Bermudagrass” value [6, 12] was 80. For the same molecule, the “Bermudagrass plant response rating (0 to 100 scale)” value [6, 13] was 85, the “Plant response rating, Bermudagrass” value [6, 14] was 85 and the “Plant response rating, Bermudagrass” value [6, 15] was 95. For the same molecule, the “Plant response rating, Velvetleaf” value [7, 12] was 85, the “Velvetleaf plant response rating (0 to 100 scale)” value [7, 13] was 90 and the “Plant response rating, Velvetleaf” value [7, 14] was 90. The “Plant response rating, Velvetleaf” value [7, 15] was 95, the “Plant response rating, Crabgrass, Large” value [8, 12] was 70 and the “Crabgrass, Large plant response rating (0 to 100 scale)” value [8, 13] was 75. The “Plant response rating, Crabgrass, Large” value [8, 14] was 80, the “Plant response rating, Crabgrass, Large” value [8, 15] was 90 and the “Plant response rating, Kochia” value (kochia (Kochia scoparia); [12]) was 10. The “Kochia plant response rating (0 to 100 scale)” value (kochia (Kochia scoparia); [13]) was 60, the “Plant response rating, Kochia” value (kochia (Kochia scoparia); [14]) was 65 and the “Plant response rating, Kochia” value (kochia (Kochia scoparia); [15]) was 75. The “Plant response rating, Johnsongrass” value [9, 12] was 65, the “Johnsongrass plant response rating (0 to 100 scale)” value [9, 13] was 80 and the “Plant response rating, Johnsongrass” value [9, 14] was 80. The “Plant response rating, Johnsongrass” value [9, 15] was 95, the “Plant response rating, Foxtail, Green” value [10, 12] was 60 and the “Foxtail, Green plant response rating (0 to 100 scale)” value [10, 13] was 60. For the same molecule, the “Plant response rating, Foxtail, Green” value [10, 14] was 85, the “Plant response rating, Foxtail, Green” value [10, 15] was 90 and the “Plant response rating, Soybean” value (soybean (Glycine max); [12]) was 75. The “Soybean plant response rating (0 to 100 scale)” value (soybean (Glycine max); [13]) was 90, the “Plant response rating, Soybean” value (soybean (Glycine max); [14]) was 95 and the “Plant response rating, Soybean” value (soybean (Glycine max); [15]) was 98. The “Plant response rating, Lambsquarters” value [11, 12] was 80, the “Lambsquarters plant response rating (0 to 100 scale)” value [11, 13] was 95 and the “Plant response rating, Lambsquarters” value [11, 14] was 100. For the same molecule, the “Plant response rating, Lambsquarters” value [11, 15] was 100.

From patent publication US8952024B2, “Herbicidal pyrimidone derivatives” (E I du Pont de Nemours and Company, priority 2009, dated 2015)
